Reference: the supplement of paper PMC3937590

Columns and labels:
Test in all cases: -log10 GI50 (growth inhibition 50%) (-log10(M)); higher = more potent growth inhibition
EFM192A = tested on: EFM192A
Outline: (§1)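 The reported figure is the negative logarithm of GI50, defined as the molar concentration that produces the set level of growth inhibition. The logarithm is base 10. It comes from a Gompertz curve fitted by nonlinear least squares to 72-hour luminescence data from breast cancer cell lines given nine doses in 1:5 serial dilution, in triplicate, with a time-zero plate as reference. A < qualifier marks values equal to the top dose.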

CAL148 = tested on: CAL148
Outline: as §1

EFM19 = tested on: EFM19
Outline: as §1

CAL851 = tested on: CAL851
Outline: as §1

JIMT1 = tested on: JIMT1
Outline: as §1

EFM192C = tested on: EFM192C
Outline: as §1

CAL120 = tested on: CAL120
Outline: as §1

EFM192B = tested on: EFM192B
Outline: as §1

SUM44PE = tested on: SUM44PE
Outline: as §1

21PT = tested on: 21PT
Outline: as §1

Compound | -log10 GI50 (EFM192A) | -log10 GI50 (CAL148) | -log10 GI50 (EFM19) | -log10 GI50 (CAL851) | -log10 GI50 (JIMT1) | -log10 GI50 (EFM192C) | -log10 GI50 (CAL120) | -log10 GI50 (EFM192B) | -log10 GI50 (SUM44PE) | -log10 GI50 (21PT)
CC(=O)NCC(=O)N1[C@@H]2CC[C@H]1c1ccc(Nc3ncc(C(F)(F)F)c(NC4CCC4)n3)cc12 | 5.09 | 7.04 | 5.63 | 5.04 | 5.41 | 5.07 | 5.76 | 5.28 |  | 
CC(=O)Nc1cccc(-n2c(=O)n(C3CC3)c(=O)c3c(Nc4ccc(I)cc4F)n(C)c(=O)c(C)c32)c1 |  |  |  |  |  |  |  |  | 6.91 | 
CCC[C@H](N[C@H]1CCc2cc(F)cc(F)c2C1)C(=O)Nc1cn(C(C)(C)CNCC(C)(C)C)cn1 | 4.58 | 4.91 | 4.79 | 5.29 | 4.7 | 4.46 | 4.76 | 4.8 |  | 
COc1ccc(-c2cc3c(C)nc(N)nc3n([C@H]3CC[C@H](OCCO)CC3)c2=O)cn1 | 6.92 | 6.35 | 7.42 | 7.4 | 6.46 |  | 6.05 | 6.73 |  | 
Cn1ncc(Cl)c1-c1cc(C(=O)N[C@H](CN)Cc2ccc(F)c(F)c2)oc1Cl | 7.53 | 8.06 | 7.42 | 5.12 | 5.74 |  | 5.13 | 6.63 |  | 5.03
C=CCNC1=C2C[C@@H](C)C[C@H](OC)[C@H](O)[C@@H](C)/C=C(\C)[C@H](OC(N)=O)[C@@H](OC)/C=C\C=C(/C)C(=O)NC(=CC1=O)C2=O [17-AAG] |  |  |  |  |  |  |  |  | 8.84 | 
CO[C@H]1C[C@@H]2CC[C@@H](C)[C@@](O)(O2)C(=O)C(=O)N2CCCC[C@H]2C(=O)O[C@H]([C@H](C)C[C@@H]2CC[C@@H](O)[C@H](OC)C2)CC(=O)[C@H](C)/C=C(\C)[C@@H](O)[C@@H](OC)C(=O)[C@H](C)C[C@H](C)/C=C/C=C/C=C/1C [Rapamycin] |  |  |  |  |  |  |  |  | 9.26 | 
CC[C@@]1(O)C(=O)OCc2c1cc1n(c2=O)Cc2cc3c(CN(C)C)c(O)ccc3nc2-1 [Topotecan] |  |  |  |  |  |  |  |  | 6.43 | 
